{"source": "patent US11013844B2", "about": "“Treatment device for plasma virus inactivation” (City of Hope, priority 2014, dated 2021)", "origin": "cited, not measured here", "conditions": "within 6 days"}
{"smiles": "CN(C)c1ccc2nc3ccc(N(C)C)cc3[s+]c2c1.[Cl-]", "note": "[methylene blue, 3,7-bis(dimethylamino)phenothiazin-5-ium chloride]", "values": [{"measurement": "methylene blue drained through urine", "result": 74, "unit": "%"}, {"measurement": "part drained through urine in the original form", "setting": "the other is white methylene blue", "result": 22, "unit": "%"}]}
